Source: US7820692B2, “Tetrahydro isoquinoline derivatives, preparation methods and medicinal uses thereof” (China Pharmaceutical University, priority 2006, dated 2010)
“Also recorded” adds a separate entry of the source. Marks after values point to notes of the source that are not given here.

Columns and labels:
[1] = molecular target: κ-opioid receptor (Homo sapiens, UniProt P41145); assay: Radioligand receptor binding assay, competition with [3H]diprenorphine, κ-receptor; details: for Ki: Ki=IC50/(1+[L]/Kd); for dpm: competition binding with κ-receptor, [3H]diprenorphine 0.5 nM; for dpm / inhibition at 10 µM / inhibition rate %: compound at 1 × 10^−5 M; for IC50: competition binding, κ-opioid receptor; for inhibition at 10 µM: read-out: inhibition rate %
Protocol: (§1) The experiment test tubes are divided into total binding tubes and non-specific binding tubes, and several groups of sample tubes added with competitive ligand in different concentrations are provided. The total binding tube is added with expressed membrane receptor protein equivalent to 20 μg and [^3H] diprenorphine (0.5 nM) (1.44 Pbq/mol broad spectrum opioid antagonist, Amersham), the corresponding non-specific binding tubes are further added with 1 μM Naloxone (broad spectrum opioid antagonist, Sigma), the sample tubes are added with different concentrations compounds which are to be screened, the final volume is regulated to 100 μl with 50 mM Tris(Amresco)-HCl (pH 7.4). Incubation is performed at 30° C. for 30 min, and the tubes are placed into ice water to stop reaction. Negative pressure filter is performed in Millipore sample collector via GF/(Whatman) glass fiber filter paper. Ice cold 50 mM Tris-HCl (pH 7.4) is used to wash the filter paper for three times, each for 4 ml; Dry the filter paper and place it in 0.5 ml Eppendorff tube, and add 0.5 ml of lipophilic scintillator liquid (Reagent No. 1 Factory Of Shanghai Chemical Reagent Co. Ltd). Beckman LS 6500 multifunctional liquid scintillation counter is adopted for measuring radiation intensity, calculating inhibition rate is calculated, each concentration has three duplicated tubes, and each tube is independently tested for 3-4 times.
(§2) IC50 value is calculated by software Prism 4.0.
(§3) Ki=IC50/(1+[L]/Kd), ([L] is the concentration of added marked ligand, and Kd is equilibrium dissociation constant of radioligand).

[2] = tested on: Kuming mice; assay: Mice hot plate method analgesic test; format: in vivo; details: for Analgesic experiment result, Mice hot plate method: subcutaneous injection, hot plate 55° C., value with range in brackets
Protocol: (§4) Analgesic efficacy of the subject compound is determined by using model derived from mice hot plate method and mice writhing method (Methodology of Pharmacological Experiment, edition II, Xu Shuyun, People Medical Publishing Company, 1991).
Experiment Animal: Kuming Mice (Female, 18-22 g)
(§5) • (1) Selection of normal mice: the test room temperature is controlled at about 22° C., temperature of the hot plate of an pain threshold dector is regulated to 55° C., the duration from the moment the mice is put on the hot plate to the moment the mice start to lick the hind paw is recorded as pain threshold value, the test is repeated twice at interval of 20 min, and the mice with average pain threshold value no more than 30 sec is qualified mice. • (2) Experimental mice: the qualified mice are randomly divided into groups each having 10 mice, and subjected to subcutaneous injection. • Each group is tested for mice pain response time once every 5, 15, 30, 50, and 60 minute after administration, and the medicine is believed to be effective which response time beyond 1 min. • Mice Writhing Assay • I-6 is administered via subcutaneous injection, then 0.6% acetic acid solution (10 ml/kg) is administered after 30 min, and the number of the mice writhing within 15 min is recorded. 3.

[3] = tested on: Kuming mice; assay: Mice writhing assay (acetic acid) analgesic test; format: in vivo; details: subcutaneous injection, 0.6% acetic acid after 30 min, writhing within 15 min
Protocol: as §4, §5

[4] = molecular target: μ-opioid receptor (Homo sapiens, UniProt P35372); assay: Radioligand receptor binding assay, competition with [3H]diprenorphine, μ-receptor; details: for inhibition at 1 µM: read-out: inhibition rate of medicine at 1 × 10^−6 M (μ); for Ki: Ki=IC50/(1+[L]/Kd); for IC50: competition binding, μ-opioid receptor; for receptor selectivity μKi/κKi: ratio of μ Ki to κ Ki
Protocol: as §1, §2, §3

[5] = tested on: Kuming mice; assay: Analgesic tolerance test (hot plate, 9 days administration); format: in vivo; details: morphine 7 mg/kg subcutaneous injection
Protocol: Kuming mice (18-20 g, male) are selected for test, and divided into physiological saline group, morphine group, and I-6 group.
physiological saline group: subcutaneous administration, 0.2 mL for each mice.
Morphine group: Day 1-3, subcutaneous injection, 7 mg/kg • Day 4-7, subcutaneous injection, 10 mg/kg • Day 8-9, subcutaneous injection, 15 mg/kg I-6 group: Day 1-9, subcutaneous injection, 25 μg/kg
Hot plate method in mice is adopted as model, administration lasts for 9 days, analgesic effects before and after administration are determined every day, and if analgesic effect is attenuated after continuous administration of 3 days, the drug concentration will be increased, and if analgesic effect don't change, the drug concentration will not be changed.

[6] = 1 × 10^−6 M, printed in the IC50 (M) μ column

Row | Compound | Ki [1] [nM] | dpm [1] [dpm] | IC50 [1] [nM] | inhibition at 10 µM [1] [%] | inhibition rate % [1] [%] | other results
1 | O=C1CC(C(=O)N2CCc3ccccc3C2CN2CCCC2)c2ccccc21 (centres unmarked) [I-1, 1-(pyrrolidine-1-methyl)-2-(2,3-dihydro-inden-3-keto-1-carbonyl)-1,2,3,4-tetrahydroisoquinoline] | 0.438 | 212.91 | 1.53 | 100 |  | analgesic efficacy compared with morphine ([2]; mice hot plate method and mice writhing method): powerful analgesic efficacy; Analgesic experiment result, Mice hot plate method [2]: 44.147(25.134-77.545) ug/kg; Analgesic experiment result, Mice writhing assay [3]: 26.303(16.807-41.165) ug/kg; inhibition at 1 µM [4, 6]: 18.7%
2 | COc1cc2c(cc1OC)C(CN1CCCC1)N(C(=O)C1CC(=O)c3cc(OC)c(OC)cc31)CC2 (centres unmarked) [I-27, 6,7-dimethoxy-1-(pyrrolidine-1-methyl)-2-(5,6-dimethoxy-2,3-dihydro-inden-3-keto-1-carbonyl)-1,2,3,4-tetrahydroisoquinoline] |  | 5257.44 |  |  | 0 | 
3 | COc1ccc2c(c1)C(CN1CCCC1)N(C(=O)C1CC(=O)c3ccccc31)CC2 (centres unmarked) [I-14, 7-methoxy-1-(pyrrolidine-1-methyl)-2-(2,3-dihydro-inden-3-keto-1-carbonyl)-1,2,3,4-tetrahydroisoquinoline] | 270 | 972.69 | 912 | 77.3 |  | inhibition at 1 µM [4, 6]: 14.6%
4 | CN1CC[C@]23c4c5ccc(O)c4O[C@H]2[C@@H](O)C=C[C@H]3[C@H]1C5 [Morphine, morphine] |  |  |  |  |  | Analgesic experiment result, Mice hot plate method [2]: 6.949(5.682-8.500) mg/kg; Analgesic experiment result, Mice writhing assay [3]: 0.840(0.558-1.265) mg/kg; analgesic effect on continuous administration ([5]; Day 3): no significant analgesic effect; also recorded: tolerance and efficacy of zero; analgesic effect on continuous administration ([5]; from Day 2): attenuated analgesic effect from Day 2
5 | COc1ccc2c(c1)C(C(=O)N1CCc3cc(OC)c(OC)cc3C1CN1CCCC1)CC2=O (centres unmarked) [I-31, 6,7-dimethoxy-1-(pyrrolidine-1-methyl)-2-(6-methoxy-2,3-dihydro-inden-3-keto-1-carbonyl)-1,2,3,4-tetrahydroisoquinoline] |  | 3271.85 |  |  | 11.2 | 
6 | COc1ccc2c(c1)C(CN1CCCC1)N(C(=O)C1CC(=O)c3cc(OC)c(OC)cc31)CC2 (centres unmarked) [I-15, 7-methoxy-1-(pyrrolidine-1-methyl)-2-(5,6-dimethoxy-2,3-dihydro-inden-3-keto-1-carbonyl)-1,2,3,4-tetrahydroisoquinoline] |  | 820.16 |  |  | 82.3 | inhibition rate of medicine at 1 × 10^−6 M (μ) [4, 6]: 11.7% (^−6)^a
7 | COc1ccc2c(c1)C(C(=O)N1CCc3ccc(OC)cc3C1CN1CCCC1)CC2=O (centres unmarked) [I-19, 7-methoxy-1-(pyrrolidine-1-methyl)-2-(6-methoxy-2,3-dihydro-inden-3-keto-1-carbonyl)-1,2,3,4-tetrahydroisoquinoline] |  | 799.91 |  |  | 82.9 | 
8 | COc1cc2c(cc1OC)C(CN1CCCC1)N(C(=O)C1CC(=O)c3ccccc31)CC2 (centres unmarked) [I-26, 6,7-dimethoxy-1-(pyrrolidine-1-methyl)-2-(2,3-dihydro-inden-3-keto-1-carbonyl)-1,2,3,4-tetrahydroisoquinoline] |  | 1883.77 |  |  | 51.9 | 
9 | COc1ccc2c(c1)C(C(=O)N1CCc3ccccc3C1CN1CCCC1)CC2=O (centres unmarked) [I-13, 1-(pyrrolidine-1-methyl)-2-(6-methoxy-2,3-dihydro-inden-3-keto-1-carbonyl)-1,2,3,4-tetrahydroisoquinoline] | 0.909 | 211.54 | 3.18 | 100 |  | Ki [4]: 133 nM; IC50 [4]: 399 nM; receptor selectivity μKi/κKi [4]: 146
10 | COc1ccc2c(c1)C(CN1CCCC1)N(C(=O)C1CC(=O)c3ccc(Cl)cc31)CC2 (centres unmarked) [I-18, 7-methoxy-1-(pyrrolidine-1-methyl)-2-(6-chloro-2,3-dihydro-inden-3-keto-1-carbonyl)-1,2,3,4-tetrahydroisoquinoline] | 17.1 | 281.00 | 59.9 | 100 |  | melting point: 151 to 153 °C; inhibition at 1 µM [4, 6]: 14%
11 | COc1cc2c(cc1OC)C(CN1CCCC1)N(C(=O)C1CC(=O)c3ccc(Cl)cc31)CC2 (centres unmarked) [I-30, 6,7-dimethoxy-1-(pyrrolidine-1-methyl)-2-(6-chloro-2,3-dihydro-inden-3-keto-1-carbonyl)-1,2,3,4-tetrahydroisoquinoline] |  | 2269.71 |  |  | 40.6 | 
12 | COc1cc2c(cc1OC)C(C(=O)N1CCc3ccccc3C1CN1CCCC1)CC2=O (centres unmarked) [I-5, 1-(pyrrolidine-1-methyl)-2-(5,6-dimethoxy-2,3-dihydro-inden-3-keto-1-carbonyl)-1,2,3,4-tetrahydroisoquinoline] | 1.34 | 260.58 | 4.69 | 99.5 |  | Ki [4]: 106 nM; IC50 [4]: 318 nM; receptor selectivity μKi/κKi [4]: 79
